Patent publication US10626148B2, “Glycopeptides conjugates and uses thereof” (priority 2015, dated 2020)
Where two headings read alike, the source gives them in different places.

Tests used:
[1] = tested on: Methicillin-resistant S. aureus (ATCC 33591); experiment: MIC, micro-dilution broth, MRSA; format: cell-based
Protocol: (§1) Test compounds were assayed in a micro-dilution broth format. Stock solutions were made by serially diluting the compounds using autoclaved millipore water or broth media. The antibacterial activity of the compounds was determined against gram positive bactreia like methicillin-resistant S. aureus (MRSA), vancomycin-intermediate-resistant S. aureus (VISA), vancomycin-sensitive E. faecium (VSE), vancomycin-resistant E. faecalis and vancomycin-resistant E. faecium (VRE). Antibacterial activity of dipicolyl-vancomycin conjugate conjugate (4) in combination with meropemem was determined against gram-negative bacteria such as K. pneumoniae ATCC BAA2146, clinical isolates K. pneumoniae R3949, K. pneumoniae R3934, E. coli R3336 and A. baumanii R676. Bacteria, to be tested, were grown for about 10 h in the suitable media, MRSA, VISA and gram negative bacteria were grown in Yeast-dextrose broth (about 1 g of beef extract, about 2 g of yeast extract, about 5 g of peptone and about 5 g of NaCl in about 1000 mL of sterile distilled water (pH-7)). For solid media, about 5% agar was used along with above mentioned composition. VSE and VRE were cultured in Brain Heart Infusion broth (Himedia). The bacterial samples were freeze dried and stored at −80° C. About 5 μL of these stocks were added to about 3 mL of the nutrient broth or Brain Heart Infusion broth and the culture was grown for about 6 h at about 37° C. prior to the experiments. This 6 h grown culture gives about 10^9 cfu/mL and this was determined by spread plating method. The 6 h grown culture was diluted to give effective cell concentration of about 10^5 cfu/mL which was then used for determining MIC. Compounds were serially diluted, in sterile water (2-fold dilution is employed) in a way that the working concentration was about 10 μM for MRSA, and VSE while for VRE, VISA and gram negative bacteria; it was about 100 μM. About 50 μL of these serial dilutions were added to the wells of 96 well plate followed by the addition of about 150 μL of bacterial solution. The plates were then incubated at about 37° C., 150 rpm in the incubator and O.D at 620 nm was recorded at an interval of about 24 h using TECAN (Infinite series, M200 pro) Plate Reader. Each concentration had triplicate values and the whole experiment was done at least twice and the MIC value was determined by taking the average of triplicate O.D. values for each concentration and plotting it against concentration. The data was then subjected to sigmoidal fitting.

[2] = tested on: Vancomycin intermediate resistant S. aureus; experiment: MIC, micro-dilution broth, VISA; format: cell-based
Protocol: as §1

[3] = tested on: Vancomycin-sensitive E. faecium (ATCC 19634); experiment: MIC, micro-dilution broth, VSEm; format: cell-based
Protocol: as §1

[4] = tested on: Vancomycin-resistant E. faecium (VanA, ATCC 51559); experiment: MIC, micro-dilution broth, VREm; format: cell-based
Protocol: as §1

[5] = tested on: Vancomycin-resistant E. faecalis (VanA, ATCC 51575); experiment: MIC, micro-dilution broth, VREs; format: cell-based
Protocol: as §1

[6] = tested on: Staphylococci (MRSA and VISA) and Enterococci (VREm and VREs); experiment: Antibacterial activity, gram positive panel; format: cell-based; settings: VSEm
Protocol: (§2) Test compounds were assayed in a micro-dilution broth format. Stock solutions were made by serially diluting the compounds using autoclaved millipore water or broth media. The antibacterial activity of the compounds was determined against gram positive bactreia like methicillin-resistant S. aureus (MRSA), vancomycin-intermediate-resistant S. aureus (VISA), vancomycin-sensitive E. faecium (VSE), vancomycin-resistant E. faecalis and vancomycin-resistant E. faecium (VRE). Antibacterial activity of dipicolyl-vancomycin conjugate conjugate (4) in combination with meropemem was determined against gram-negative bacteria such as K. pneumoniae ATCC BAA2146, clinical isolates K. pneumoniae R3949, K. pneumoniae R3934, E. coli R3336 and A. baumanii R676. […] This 6 h grown culture gives about 10^9 cfu/mL and this was determined by spread plating method. […] The plates were then incubated at about 37° C., 150 rpm in the incubator and O.D at 620 nm was recorded at an interval of about 24 h using TECAN (Infinite series, M200 pro) Plate Reader. Each concentration had triplicate values and the whole experiment was done at least twice and the MIC value was determined by taking the average of triplicate O.D. values for each concentration and plotting it against concentration. […]

[7] = tested on: meropenem-resistant NDM-1 bacteria; experiment: Combination with meropenem against NDM-1 gram negative bacteria; format: cell-based; settings: in combination with meropenem
Protocol: as §2, with “R676. Bacteria, to be tested, were grown for about 10 h in the suitable media, MRSA, VISA and gram negative bacteria were grown in Yeast-dextrose broth (about 1 g of beef extract, about 2 g of yeast extract, about 5 g of peptone and about 5 g of NaCl in about 1000 mL of sterile distilled water (pH-7)).” for “R676.”
(§3) Then, the antibacterial activities of Dipicolyl-vancomycin conjugate (4) is checked in combination with meropenem against New-Delhi β-lactamase producing gram negative bacteria such as K. pneumoniae BAA2146, clinical isolates K. pneumoniae R3949, K. pneumoniae R3934, E. coli R3336 and A. baumanii R676. […] Further we have also evaluated the antibacterial activity of dipicolyl-vancomycin conjugate (4) in presence of zinc sulphate, wherein it forms dipicolyl-vancomycin-zinc complex (5).

VREs ATCC 51575 = format: in vivo, E. faecalis; settings: CD-1 mice, 12 mg/kg i.p. once daily, three doses
Protocol: Female CD-1 mice 6 to 8 weeks of age and weighing 20 to 25 g were used in this study. On day −7, all mice were injected intravenously (i.v.) with 0.2 mL of 0.2% λ-carrageenan to increase their susceptibility to bacterial renal infection. λ-Carrageenan increases mice susceptibility to renal infection following i.v. injection, possibly by forming a lattice structure in renal tissue and forming a support structure for bacterial attachment and growth. Bacterial strains that fail to cause renal infection in normal mice produce significant renal infections in λ-carrageenan-treated mice. On day 0, all mice were injected i.v. with 0.2 mL of the bacterial culture (VREs ATCC 51575, 10^8 CFU/mouse) through the tail vein. Four hours after the bacterial inoculation, mice were treated intraperitoneally (i.p.) with vancomycin, compound 4 and linezolid at 12 mg/kg of body weight or 0.2 mL of saline (0.9% NaCl) control (n=5). All the test compounds or saline were administered once daily for an additional two consecutive days for a total of three doses. All mice were sacrificed on day 3. Both kidneys from each mouse were removed aseptically and homogenized in 10 mL of saline. The dilutions of the homogenate were plated onto sheep blood agar plates, which were incubated overnight at about 37° C. The bacterial titer was expressed as log10 CFU/g of kidney weight.

[8] = tested on: NDM-1 expressing Escherichia coli R3336; experiment: microbe, parasite or virus in culture; format: cell-based; settings: for MIC: Escherichia coli
Protocol: as §1, §3

[9] = tested on: NDM-1 expressing Klebsiella pneumoniae ATCC BAA2146; experiment: microbe, parasite or virus in culture; format: cell-based; settings: for MIC: Klebsiella pneumoniae
Protocol: as §1, §3

[10] = tested on: NDM-1 expressing Klebsiella pneumoniae R3934; experiment: microbe, parasite or virus in culture; format: cell-based; settings: for MIC: Klebsiella pneumoniae
Protocol: as §1, §3

[11] = tested on: NDM-1 expressing Klebsiella pneumoniae R3949; experiment: microbe, parasite or virus in culture; format: cell-based; settings: for MIC: Klebsiella pneumoniae
Protocol: as §1, §3

[12] = tested on: meropenem-resistant NDM-1 K. pneumoniae R3934; experiment: Sepsis infection model in mice; format: in vivo; settings: CD-1 mice, i.p., 10 mg/kg alone, 1 h and 24 h post-infection
Protocol: Sepsis infection model: About six-week-old, female CD-1 mice (weight, ˜19-24 g) were used for the experiments. Mice were infected intraperitoneally (i.p.) with a dose of ˜10^6 CFU/mouse of meropenem-resistant NDM-1 K. pneumoniae R3934. Then, mice were treated twice at 1 h and 24 h post-infection with a specified i.p. dose of either saline, meropenem (10 mg/kg), compound 4 (10 mg/kg), or a combination of compound 4 (10 mg/kg) and meropenem (10 mg/kg). Here, colistin (5 mg/kg) was used as a positive control. Mice were euthanized after 48 h post-infection and then liver, spleen, kidney and lungs were collected to find out the bacterial density in these organs. Organs were placed into 10 ml sterile saline on ice, and then homogenized. The dilutions of the homogenate were plated onto agar plates, which were incubated for 24 h at 37° C. The bacterial titer was expressed as log10 CFU/g of organ weight.

NDM-1 enzyme = molecular target: T1, NDM-1 enzyme (Klebsiella pneumoniae, UniProt C7C422); experiment: NDM-1 enzyme inhibition, nitrocefin substrate; format: biochemical; settings: nitrocefin as substrate
T1 construct: made in house; host or cells: E. coli BL21 (DE3)
T1 sequence (C7C422 29-270, looked up, species assumed): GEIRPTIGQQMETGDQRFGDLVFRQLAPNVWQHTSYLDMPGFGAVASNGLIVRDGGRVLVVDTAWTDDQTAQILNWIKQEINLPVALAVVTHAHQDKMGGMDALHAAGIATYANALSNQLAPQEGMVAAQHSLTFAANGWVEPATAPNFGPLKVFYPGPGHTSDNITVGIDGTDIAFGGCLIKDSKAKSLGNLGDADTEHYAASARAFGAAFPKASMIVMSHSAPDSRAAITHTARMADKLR
Protocol: The NDM-1 was produced by E. coli BL21 (DE3) carrying pET30a-NDM-1 in LB medium. Initially, the purified NDM-1 enzyme (5 nM, HEPES buffer, pH-7.4) was supplemented with 20 μM ZnSO4 for 30 min. Next, the enzyme was pre-incubated with the inhibitor (compound 4) for 20 min prior to the initiation of the assay by the addition of the substrate (Nitrocefin, 30 μM). Assays were read in 96-well microplate format at 490 nm (absorbance) using TECAN plate reader (Infinite Pro.) at 37° C. IC50s were deduced from a plot of percent loss of activity versus inhibitor concentration.

MRSA = experiment: Resistance development study, serial passages; format: cell-based, S. aureus; settings: passaged at MIC/2
Protocol: MIC values of the compound 4 and vancomycin were determined against MRSA as described above. For the next day MIC experiment, the bacterial dilution was made by using the bacteria from sub-MIC concentration of the compounds (at MIC/2). Then, the concentration of this bacteria was adjusted to ˜10^5 CFU/mL based on OD600 and subjected to next MIC assay. After a 24 h incubation period, again bacterial dilution was prepared by using the bacterial suspension from sub-MIC concentration of the compound (at MIC/2) and assayed for another MIC experiment. The process was repeated for 25 passages, and the fold increase in MIC was determined. […] Thus bacteria were unable in acquiring resistance to this compound and this emphasizes the longevity of such compounds in clinics.

[13] = read-out: MIC of Meropenem in absence of compound 4
[14] = read-out: MIC of Meropenem in absence of compound 5

With `NCCCCCCN(Cc1ccccn1)Cc1ccccn1` [Compound 3, dipicolyl-1,6-hexadiamine] the MIC ([1]; MRSA) was greater than 100 µM, the MIC [2] was greater than 100 µM and the MIC ([3]; VSEm) was greater than 100 µM. The MIC ([4]; VREm) was greater than 100 µM, the MIC ([5]; VREs) was greater than 100 µM and the “antibacterial activity against any of the bacteria tested” value [6] was “did not show any activity”. The “resensitization of meropenem-resistant NDM-1 bacteria to meropenem (synergistic activity)” value [7] was “did not show any appreciable synergistic activity”.
In the case of `CC(=O)NC[C@H]1CN(c2ccc(N3CCOCC3)c(F)c2)C(=O)O1` [Linezolid, linezolid, reference compound], the “reduction of bacterial titer from infected kidneys in comparison to vancomycin” value (VREs ATCC 51575) is reported as “reduced bacterial titer from the infected kidneys more effectively” and the “CFU reduction compared to vehicle treated control (saline)” value (VREs ATCC 51575; kidneys) is reported as roughly 4 log10 CFU.
With `C[C@@H](O)[C@H]1C(=O)N2C(C(=O)O)=C(S[C@@H]3CN[C@H](C(=O)N(C)C)C3)[C@H](C)[C@H]12` [Meropenem, meropenem, reference compound] the MIC [8, 13] was greater than 100 µg/mL, the MIC [8, 14] was greater than 100 µg/mL and the MIC ([9]; ATCCBAA2146, read-out: MIC of Meropenem in absence of compound 4) was greater than 100 µg/mL. The MIC ([9]; ATCCBAA2146, read-out: MIC of Meropenem in absence of compound 5) was greater than 100 µg/mL, the MIC [10, 13] was greater than 100 µg/mL and the MIC [10, 14] was greater than 100 µg/mL. The MIC [11, 13] was greater than 100 µg/mL, the MIC [11, 14] was greater than 100 µg/mL and the “in-vivo antibacterial activity, bacterial titer in organs” value [12] was “did not show any activity”.
`CN[C@H](CC(C)C)C(=O)N[C@H]1C(=O)N[C@@H](CC(N)=O)C(=O)N[C@H]2C(=O)N[C@H]3C(=O)N[C@H](C(=O)N[C@H](C(=O)O)c4cc(O)cc(O)c4-c4cc3ccc4O)[C@H](O)c3ccc(c(Cl)c3)Oc3cc2cc(c3O[C@H]2OC(CO)[C@H](O)C(O)C2O[C@H]2C[C@@](C)(N)[C@@H](O)C(C)O2)Oc2ccc(cc2Cl)[C@H]1O` (stereo partly shown) [Vancomycin, reference compound] showed an MIC ([1]; Staphylococcus aureus) of 0.63 µM, an MIC ([2]; Staphylococcus aureus) of 13 µM and an MIC ([3]; Enterococcus faecium, ATCC19634) of 0.6 µM. For the same compound, the MIC ([4]; Enterococcus faecium, ATCC51559) was 750 µM, the MIC ([5]; Enterococcus faecalis, ATCC51575) was 250 µM and the “effect on the activity of NDM-1” value (NDM-1 enzyme) was “no effect”. For the same compound, the “fold increase in MIC after 25 serial passages” value (MRSA) was roughly 16 fold and the “passages after which the MIC value started increasing” value (MRSA) was 7 passages.
“Dipicolyl-Vancomycin-Zinc Complex [Compound 5]” showed an MIC ([1]; MRSA) of 0.3 µM, an MIC [2] of 0.3 µM and an MIC ([3]; VSEm) of 0.31 µM. The MIC ([4]; VREm) was 0.6 µM, the “fold more active than vancomycin” value ([4]; VREm (VRE), ratio of MIC values) was “about 1250 fold” and the MIC ([5]; VREs) was 1.5 µM. For the same compound, the “MIC of Meropenem in presence of compound 5 at 12 μM” value (from here on “MIC of Meropenem”) ([8]; Escherichia coli R3336) was greater than 100 µg/mL, the “MIC of Meropenem” value ([9]; Klebsiella pneumoniae ATCC BAA2146) was greater than 100 µg/mL and the “MIC of Meropenem” value ([10]; Klebsiella pneumoniae R3934) was greater than 100 µg/mL. For the same compound, the “MIC of Meropenem” value ([11]; Klebsiella pneumoniae R3949) was greater than 100 µg/mL and the “resensitization of meropenem-resistant NDM-1 bacteria to meropenem (synergistic activity)” value [7] was “did not restore the activity of meropenem”.
